# Measured values from patent EP0273990B1, “Novel organic peroxides and their use in the preparation of epoxide groups containing (co)polymers” (AKZO N.V., priority 1986, dated 1988).
# Details: half-life period of decomposition 10 hours; 0,1 M solution in chlorobenzene
smiles,measurement,value
"C=CC(C)(C)OOC(C)(C)c1ccccc1 [peroxide 3, α-(2-methyl-3-buten-2-ylperoxy)isopropylbenzene]",Temperature (°C) for t½ of 10 hours,106 °C
